According to patent publication US7344884B2, “Peptides promoting cell adherence, growth and secretion” (Becton, Dickinson and Company, priority 2001, dated 2008):
“Also recorded” adds a separate entry of the source. Marks after values point to notes of the source that are not given here.

Legend:
[1] = tested on: PDGF secretion by CHO cells producing rPDGF (CRL 9359/CRL9360); test: Sandwich ELISA for PDGF in supernatant of CHO cells cultured with test peptide; format: cell-based, Chinese Hamster; details: for effect on PDGF expression/accumulation in CHO cells (result in words): library screening
Description: To identify peptides in a particular library which positively affected cell expression and secretion, each test peptide was added to a well containing a monolayer of chinese hamster ovary cells. The selected cells were anchorage-dependent CHO cells known to secrete platelet derived growth factor, which were initially grown on the tissue culture surfaces using a media with serum. After the monolayer was established, a chemically defined base media and a single test peptide were added to each well. In the present work, secretion of PDGF was assessed in the presence and absence of peptides from the library by collecting supernatant from each well and performing an ELISA specific for PDGF on the supernatant. The output was the absorbance at 492 nm. Secretion was evaluated in a basal medium rich in amino acids, the necessary vitamins, metals, carbon source and concensus CHO culture factors. PDGF levels were compared to known standards spiked into the media used for culture.
CHO cells are the most widely used animal cell lines in the field of biotechnology for the production of therapeutically important pharmaceuticals (Martin et al, REVIEW, J. of Biotechnology. Progress 1998 14, 807-833). The Chinese Hamster Ovary Cell Lines producing rPDGF (CRL 9359/CRL9360) were obtained from the American Type Culture Collection, 12301 Parklawn Drive, Rockville, Md. 20852. The depositor was Amgen Inc. of Thousand Oaks, Calif. Further details about the cell lines and expressed products can be found in U.S. Pat. No. 5,175,255.
Cells were propagated in DMEM/FI2 media with 5% serum at 37° C. between 5-7% CO2. Passages were limited to 5 prior to seeding and PDGF expression was monitored by western blot and ELISA. Cells were routinely seeded at a density of approximately 1×10^4 cells per 20 ml culture media that was placed in a 250 ml canted neck polystyrene tissue culture treated flask (Becton Dickinson). Cells were cultured to confluency and trypsinized to yield cells for seeding.
1A Media was used as a PDGF negative control (pre-culture), to hydrate the 40 ng PDGF standard (pre-culture), to hydrate test peptides (pre-culture) and to normalize all other test and control PDGF results (post-culture). The 1A media was prepared by adding the following components to a 500 ml bottle of DMEM/F12 (GIBCO cat. No. 11330-032): 2.5 ml of a 10 mM NEAA stock (GIBCO Catalog 11140-050); 10 ml of a 200 mM L-glutamine stock (GIBCO Catalog 25030-08); 1 ml of a 50 mg/ml gentamycin sulfate stock (GIBCO Catalog 15750-0601); 150 μl of a 100 μM methotrexate Stock (Sigma Catalog M8407); 0.5 ml of a 7.5 mg/ml insulin Stock (Sigma I-6634); 50 μl of a 1 mg/ml insulin-like growth factor-stock (Long R3 Factor, Sigma Catalog No. I-1271); 2.5 grams of bovine serum albumin (Sigma Catalog No. A-7906); and 0.5 ml of a 7.5 mg/ml holo-transferrin stock (Sigma T-1283).
The CHO model cell lines are adherent cultures that have never been adapted to a serum-free environment. Accordingly, media containing serum was used to seed wells. Two formats, Overlay (O) and Wash (W) were used to introduce media containing test peptides to adhered cells.
In the O-Format, compounds were gently added on top of the seeding media on the second day. In the O-Format, 9360 cells were seeded at 1,000 cells per 96 well in a 125 μl volume of 1A media with 1.5% serum. 1A media (−serum) containing 12 mM of test peptide was overlaid 2 days later for a final peptide concentration of 6 mM and 0.75% serum. Cell culture supernatant was collected from each test environment on day 10 for later PDGF assay.
In the W-Format, compounds were added on day 2 or 3 after the seeding media was removed. In the W-Format, 9359 and 9360 cells were seeded at 6,000 cells per 96 well in a 250 μl volume of DMEM/F12 with 5% serum. Three days later, the seeding media was removed and replaced with 250 μl of 1A media (−serum) containing 6 mM test peptide. Cell culture supernatant was collected on days 5 and 12 for later PDGF assay. […]

MC3T3 cells = test: Oxygen biosensor assay of adherence and growth of MC3T3 cells on peptide-coated wells; format: cell-based, murine; details: for impact on MC3T3 growth (result in words): peptide or control adsorbed to surface, compared with uncoated surface or controls
Description: To identify peptides in a particular library which positively affected cell growth in cell culture, the library was screened in a growth assay. The selected cells were anchorage-dependent MC3T3 cells, which were grown on tissue culture surfaces which had been pre-coated with peptides of the present invention. The screening medium used to evaluate peptides in the library was a low serum medium allowing evaluation of peptide effects with low interference from undefined materials present in the medium. In the present work, growth of MC3T3 cells was assessed in the presence and absence of the peptides in the library which were present in the form of a dried film on a tissue culture substrate. Growth was evaluated in a basal medium rich in amino acids and containing the necessary vitamins, metals and simple carbon source. After an appropriate incubation time, growth of each peptide-supplemented culture is compared to growth of the unsupplemented culture. The extent of growth was evaluated using a Becton Dickinson oxygen sensor to detect oxygen consumption by the cells. The cell number in each well containing a particular peptide was then assessed indirectly with a flurometer which measured fluorescence generated from a fluoroescent dye using band-pass filters of 465 nm for excitation and 590 nm for emission.
Briefly, the oxygen biosensor is based upon the fluoroscence of ruthenium dye which is quenched in the presence of oxygen. The dye is immobilized within an inert but highly permeable silicone matrix located at the bottom of microtiter wells. […] (Wodnicka, M., Guarino, R. D., Hemperly, J. J. Temmins, M. R., Stitt, D. and Pitner, J. B. (2000) J. of Biomolecular Screening 5:141-152)
MC3T3-E1 is a clonal line of murine calvaria-derived osteoblast (establishement of a clonal osteogenic Cell Line from Newborn Mouse Calvaria in Jpn J. Oral Biol 23, 899 (1981)).
MC3T3 cells were maintained in αMEM (GIBCO Catalog No: 12561) supplemented with 2% fetal calf serum (FCS, inactivated) and 100 units or μg/ml of penicillin/streptomycin for one month prior to use. Cells were routinely seeded at a density of approximately 1×10^4 cells per 20 ml culture media which was placed in a 250 ml canted neck polystyrene tissue culture treated flask (Becton Dickinson). Cells were cultured until approximately 2×10^6 cells were obtainable from each flask, which were resuspended in 5 ml of αMEM with 2% FCS for a final cell concentration of about 5×10^4 cells per 150 μl for peptide screening.
For determining the biological effects of library peptides and appropriate controls on MC3T3 cells, cells (5×10^4/150 μl) were grown in an 96 well oxygen sensor plate treated as described below:
Peptides for screening were obtained from either a MDL-400 library or an MDL-100 library. Fifty microliters of peptides at a 1 mM stock concentration in phosphate buffered saline were placed in wells of a 96 well oxygen sensor plate and dried in a reverse flow air hood overnight […].
Vitrogen-collagen-I was obtained from Cohesion (Palo Alto, Calif., Catalog No. FXP-019) and fibronectin was obtained from Sigma (Catalog No. F-0895). All other extracellular matrix (ECM) compounds were obtained from Becton Dickinson Labware, (Bedford, Mass.). Polylysine was obtained from Becton Dickinson Labware and RGDSP-rhodamine was from AnaSpec Inc. (San Jose, Calif.). Extracellular matrix components (ECM) or known peptides were used at the following stock concentrations:
Twenty-five microliters of stock concentrations of controls and 25 μl of phosphate buffered saline were placed in wells of a 96 well oxygen sensor plate and dried overnight as described above.
Cells grown on 96 well oxygen sensor plates treated as described above were monitored for growth using a Becton Dickinson oxygen biosensor. Growth was monitored at the following time points: 1 hours, 24 hours, 32 hours, 48 hours and 86 hours. Media was changed every three days. […]

[2] = 6 mM peptide in 1A media, day 12 or sooner, 1A media post-culture value subtracted

Substance | Normalized Abs at 492 nm (relative PDGF level), MDL-400 Library [1, 2] | further results
51 (AKKKK; Synthetic peptide selected for biological activity) [Peptide 51] | 0.25 | 
37 (EKKQT; Synthetic peptide selected for biological activity) [Peptide 37] | 0.38 | 
31 (FKKKV; Synthetic peptide selected for biological activity) [Peptide 31] | 0.49 | 
EEEMY (Synthetic peptide selected for biological activity) [SEQ ID NO:13] |  | Normalized Abs at 492 nm (relative PDGF level), Follow-Up Library [1, 2]: 1.37
19 (FKKKQ; Synthetic peptide selected for biological activity) [Peptide 19] | 0.79 | 
38 (EKKKK; Synthetic peptide selected for biological activity) [Peptide 38] | 0.37 | 
44 (KKPTT; Synthetic peptide selected for biological activity) [Peptide 44] | 0.31 | 
FKFIG (Synthetic peptide selected for biological activity) [SEQ ID NO:5] |  | effect on PDGF expression/accumulation in CHO cells (result in words) [1]: positive; Abs at 590 nm (relative oxygen consumption), MDL-400 Library (MC3T3 cells; 86 hour time point, single peptide, 50 µl of 1 mM stock dried in well, value normalized to the well's initial reading): 2.27*; impact on MC3T3 growth (result in words) (MC3T3 cells): positive; also recorded: significant difference in growth; impact on MC3T3 growth (result in words) (MC3T3 cells; listed as FKFIG): positive
46 (FKKMY; Synthetic peptide selected for biological activity) [Peptide 46] | 0.28 | 
AFFFQ (Synthetic peptide selected for biological activity) [SEQ ID NO:12] | 0.43 | 
KFIFG (Synthetic peptide selected for biological activity) [SEQ ID NO:45] |  | effect on PDGF expression/accumulation in CHO cells (result in words) [1]: positive
27 (KKPQY; Synthetic peptide selected for biological activity) [Peptide 27] | 0.55 | 
16 (FKLVY; Synthetic peptide selected for biological activity) [Peptide 16] | 1.38 | 
63 (HHPST; Synthetic peptide selected for biological activity) [Peptide 63] | 0.33 | 
43 (DGKKT; Synthetic peptide selected for biological activity) [Peptide 43] | 0.32 | 
58 (HNPPY; Synthetic peptide selected for biological activity) [Peptide 58] | 0.58 | 
53 (AHKKK; Synthetic peptide selected for biological activity) [Peptide 53] | 0.22 | 
60 (AADEG; Synthetic peptide selected for biological activity) [Peptide 60] | 0.45 | 
34 (HKNQT; Synthetic peptide selected for biological activity) [Peptide 34] | 0.42 | 
56 (AKKKT; Synthetic peptide selected for biological activity) [Peptide 56] | 0.20 | 
50 (DFFHK; Synthetic peptide selected for biological activity) [Peptide 50] | 0.25 | 
30 (KNQTY; Synthetic peptide selected for biological activity) [Peptide 30] | 0.50 | 
22 (FKKKK; Synthetic peptide selected for biological activity) [Peptide 22] | 0.59 | 
65 (ADELN; Synthetic peptide selected for biological activity) [Peptide 65] | 0.23 | 
